Measurements from patent US8304422B2, “Compositions and methods for inhibition of the JAK pathway” (Rigel Pharmaceuticals, Inc., priority 2007, dated 2012).

Tested on: BaF3 V617F cells; UKE-1
Assay: Proliferation Assay (Cell Titer-Glo; Example 7)
Format: cell-based
Settings: proliferation 72 hours, inhibit JAK2 activity, cell line (BaF3 V617F or UKE-1) not stated
Description: BaF3 V617F cells are maintained and plated in RPMI with 10% FBS. Plating density for these cells is 1×10^5 cells/mL.
UKE-1 are maintained and plated in Iscove's DMEM containing 10% FBS, 10% equine serum, 1% penicillin/streptomycin and 1 uM hydrocortisone. Plating density for these cells is 0.4×10^6 cells/mL
The cells were resuspended in a corresponding medium at a required cell density (see above). 100μ of cell suspension was added to each well of a flat bottom 96 well white plate. The compound was serially diluted in DMSO from 5 mM in 3-fold dilutions, and then diluted 1:250 in the RPMI 1640 medium containing 5% FBS and pen/strep. 100 μL of resulting 2× compound solution was added per well in duplicate and the cells were allowed to proliferate for 72 hours at 37° C.
Proliferation was measured using Cell Titer-Glo. The substrate was thawed and allowed to come to room temperature. After removal of top 100 μL of medium from each well, 100 μL of the premixed Cell Titer-Glo reagent was added to each well. The plates were mixed on an orbital shaker for three minutes to induce lysis and incubated at ambient temperature for an additional five minutes to allow the signal to equilibrate. The Luminescence was read on the Wallac Plate Reader.
The results of the ability of the compounds of the invention to inhibit JAK2 activity, when tested in the above assay, are shown in the following Table XI wherein the level of activity (i.e., the IC50) for each compound is indicated in Table XI. The compound numbers in Table XI refers to the compounds disclosed herein as being prepared by the methods disclosed herein: […]

IC50	Compound
38.3 µM	CCc1cnc(Nc2cc(Cl)c(OC)c(Cl)c2)nc1Nc1ccc(CNS(=O)(=O)C2CC2)cc1 [II-84, N4-[4-(N-Cyclopropylsulfonylamino)methylphenyl]-N2-(3,5-dichloro-4-methoxyphenyl)-5-ethyl-2,4-pyrimidinediamine]
2.69 µM	CCc1cnc(Nc2cc(OC)c(OC)c(OC)c2)nc1Nc1ccc(CNS(=O)(=O)C2CC2)cc1 [II-85, N4-[4-(N-Cyclopropylsulfonylamino)methylphenyl]-5-ethyl-N2-(3-,4,5-trimethoxylphenyl)-2,4-pyrimidinediamine]
0.724 µM	CCc1cnc(Nc2ccc(N3CCN(C)CC3)cc2)nc1Nc1ccc(CNS(=O)(=O)C2CC2)cc1 [II-86, N4-[4-(N-Cyclopropylsulfonylamino)methylphenyl]-5-ethyl-N2-[4-(4-methyl-1-piperazinyl)phenyl]-2,4-pyrimidinediamine]
5.27 µM	CCc1cnc(Nc2ccc(N3CCC(F)(F)CC3)cc2)nc1Nc1ccc(CNS(=O)(=O)C2CC2)cc1 [II-87, N4-[4-(N-Cyclopropylsulfonylamino)methylphenyl]-N2-[4-(4,4-difluoro-1-piperidinyl)phenyl]-5-ethyl-2,4-pyrimidinediamine]
0.833 µM	CCc1cnc(Nc2ccc(C3CCN(C)CC3)cc2)nc1Nc1ccc(CNS(=O)(=O)C2CC2)cc1 [II-88, N4-[4-(N-Cyclopropylsulfonylamino)methylphenyl]-5-ethyl-N2-[4-(1-methyl-4-piperidinyl)pheny]-2,4-pyrimidinediamine]
0.674 µM	CCc1cnc(Nc2ccc(N3CCN(CC)CC3)cc2)nc1Nc1ccc(CNS(=O)(=O)C2CC2)cc1 [II-89, N4-[4-(N-Cyclopropylsulfonylamino)methylphenyl]-5-ethyl-N2-[4-(4-ethyl-1-piperazinyl)phenyl]-2,4-pyrimidinediamine]
0.142 µM	COc1cc(Nc2ncc(Cl)c(Nc3ccc(CNS(=O)(=O)N(C)C)cc3)n2)cc(C)c1OC [II-91, 5-Chloro-N2-(3,4-dimethoxy-5-methylphenyl)-N4-[(4-(dimethylamino)sulfonylamino)methylphenyl]-2,4-pyrimidinediamine]
13.5 µM	COc1c(Cl)cc(Nc2ncc(Cl)c(Nc3ccc(CNS(=O)(=O)N(C)C)cc3)n2)cc1Cl [II-94, 5-Chloro-N2-[3,5-dichloro-4-methoxyphenyl]-N4-[(4-(dimethylamino)sulfonylamino)methylphenyl]-2,4-pyrimidinediamine]
0.264 µM	CN1CCC(c2ccc(Nc3ncc(Cl)c(Nc4ccc(CNS(=O)(=O)N(C)C)cc4)n3)cc2)CC1 [II-98, 5-Chloro-N4-[(4-(dimethylamino)sulfonylamino)methylphenyl]-N2-[4-(1-methyl-4-piperidinyl)pheny]-2,4-pyrimidinediamine]
0.509 µM	COc1cc(Nc2ncc(C)c(Nc3ccc(CNS(=O)(=O)N(C)C)cc3)n2)cc(OC)c1OC [II-103, N4-[(4-(Dimethylamino)sulfonylamino)methylphenyl]-5-methyl-N2-(3,4,5-trimethoxyphenyl)-2,4-pyrimidinediamine]
20.3 µM	Cc1cnc(Nc2ccc(N3CCC(F)(F)CC3)cc2)nc1Nc1ccc(CNS(=O)(=O)N(C)C)cc1 [II-105, N4-[(4-(Dimethylamino)sulfonylamino)methylphenyl]-N2-[4-(4,4-difluoro-1-piperidinyl)phenyl]-5-methyl-2,4-pyrimidinediamine]
0.383 µM	Cc1cnc(Nc2ccc(C3CCN(C)CC3)cc2)nc1Nc1ccc(CNS(=O)(=O)N(C)C)cc1 [II-106, N4-[(4-(Dimethylamino)sulfonylamino)methylphenyl]-5-methyl-N2-[4-(1-methyl-4-piperidinyl)pheny]-2,4-pyrimidinediamine]
0.316 µM	CCN1CCN(c2ccc(Nc3ncc(C)c(Nc4ccc(CNS(=O)(=O)N(C)C)cc4)n3)cc2)CC1 [II-107, N4-[(4-(Dimethylamino)sulfonylamino)methylphenyl]-5-methyl-N2-[4-(4-ethyl-1-piperazinyl)phenyl]-2,4-pyrimidinediamine]
0.151 µM	CCNS(=O)(=O)NCc1ccc(Nc2nc(Nc3cc(C)c(OC)c(OC)c3)ncc2Cl)cc1 [II-109, 5-Chloro-4-[(4-(ethylamino)sulfonylamino)methylphenyl]-N2-(3,4-dimethoxy-5-methylphenyl)-2,4-pyrimidinediamine]

More lines, now with the values behind:

Compound	IC50
COc1cc(Nc2ncc(Cl)c(Nc3ccc(CNS(=O)(=O)N(C)C)cc3)n2)cc(Cl)c1OC [II-92, 5-Chloro-N2-(3-chloro-4,5-dimethoxyphenyl)-N4-[(4-(dimethylamino)sulfonylamino)methylphenyl]-2,4-pyrimidinediamine]	0.558 µM
COc1c(C)cc(Nc2ncc(Cl)c(Nc3ccc(CNS(=O)(=O)N(C)C)cc3)n2)cc1Cl [II-93, 5-Chloro-N2-(3-chloro-4-methoxy-5-methylphenyl)-N4-[(4-(dimethylamino)sulfonylamino)methylphenyl]-2,4-pyrimidinediamine]	0.35 µM
CN1CCN(c2ccc(Nc3ncc(Cl)c(Nc4ccc(CNS(=O)(=O)N(C)C)cc4)n3)cc2)CC1 [II-96, 5-Chloro-N4-[(4-(dimethylamino)sulfonylamino)methylphenyl]-N2-[4-(4-methyl-1-piperazinyl)phenyl]-2,4-pyrimidinediamine]	0.091 µM
COc1c(C)cc(Nc2ncc(C)c(Nc3ccc(CNS(=O)(=O)N(C)C)cc3)n2)cc1C [II-99, 4-[(4-(Dimethylamino)sulfonylamino)methylphenyl]-N2-(3,5-dimethyl-4-methoxyphenyl)-5-methyl-2,4-pyrimidinediamine]	0.103 µM
COc1cc(Nc2ncc(C)c(Nc3ccc(CNS(=O)(=O)N(C)C)cc3)n2)cc(C)c1OC [II-100, 4-[(4-(Dimethylamino)sulfonylamino)methylphenyl]-N2-(3,4-dimethoxy-5-methylphenyl)-5-methyl-2,4-pyrimidinediamine]	0.179 µM
COc1c(C)cc(Nc2ncc(C)c(Nc3ccc(CNS(=O)(=O)N(C)C)cc3)n2)cc1Cl [II-101, 5-Methyl-N2-(3-chloro-4-methoxy-5-methylphenyl)-N4-[(4-(dimethylamino)sulfonylamino)methylphenyl]-2,4-pyrimidinediamine]	0.194 µM
COc1c(Cl)cc(Nc2ncc(C)c(Nc3ccc(CNS(=O)(=O)N(C)C)cc3)n2)cc1Cl [II-102, 5-methyl-N2-[3,5-dichloro-4-methoxyphenyl]-N4-[(4-(dimethylamino)sulfonylamino)methylphenyl]-2,4-pyrimidinediamine]	1.17 µM
Cc1cnc(Nc2ccc(N3CCN(C)CC3)cc2)nc1Nc1ccc(CNS(=O)(=O)N(C)C)cc1 [II-104, N4-[(4-(Dimethylamino)sulfonylamino)methylphenyl]-5-methyl-N2-[4-(4-methyl-1-piperazinyl)phenyl]-2,4-pyrimidinediamine]	0.349 µM
CCNS(=O)(=O)NCc1ccc(Nc2nc(Nc3cc(C)c(OC)c(C)c3)ncc2Cl)cc1 [II-108, 5-chloro-N2-(3,5-Dimethyl-4-methoxyphenyl)-N4-[(4-(ethylamino)sulfonylamino)methylphenyl]-2,4-pyrimidinediamine]	0.085 µM
CCNS(=O)(=O)NCc1ccc(Nc2nc(Nc3cc(C)c(OC)c(Cl)c3)ncc2Cl)cc1 [II-110, 5-Chloro-N2-(3-chloro-4-methoxy-5-methylphenyl)-N4-[(4-(ethylamino)sulfonylamino)methylphenyl]-2,4-pyrimidinediamine]	0.601 µM
